Assay results from patent EP4516309A1, “CRHR1 AGONISTS FOR USE IN THE TREATMENT OF SOCIAL ANXIETY DISORDERS” (Consejo Superior de Investigaciones Cientificas, priority 2023, dated 2025).

Biological target: T1, inhibitory DREADD (Homo sapiens, UniProt P08173, A203G/Y113C)
T1 construct: host or cells: ILA CRH+ neurons of CRH-Cre mice, Cre-dependent AAV2/8 transduction in vivo
T1 sequence (P08173 1-479 Y113C/A203G): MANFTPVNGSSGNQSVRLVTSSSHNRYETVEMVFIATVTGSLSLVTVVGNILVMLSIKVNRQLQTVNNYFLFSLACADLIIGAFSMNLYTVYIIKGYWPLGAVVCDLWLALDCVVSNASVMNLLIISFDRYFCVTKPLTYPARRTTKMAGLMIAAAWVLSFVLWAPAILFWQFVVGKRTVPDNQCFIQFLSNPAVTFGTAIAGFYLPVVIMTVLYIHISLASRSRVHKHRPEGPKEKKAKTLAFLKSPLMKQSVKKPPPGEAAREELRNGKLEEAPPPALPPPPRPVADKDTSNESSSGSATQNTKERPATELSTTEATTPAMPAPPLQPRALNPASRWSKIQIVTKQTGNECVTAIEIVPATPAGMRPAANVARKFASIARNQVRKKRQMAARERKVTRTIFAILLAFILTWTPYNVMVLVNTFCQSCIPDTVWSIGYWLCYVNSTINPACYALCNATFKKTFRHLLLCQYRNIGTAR
Assay: Social novelty preference test with chemogenetic silencing of ILA CRH cells
Format: in vivo, CRH-Cre mice
Conditions: CNO 5 mg/kg intra-peritoneally 30 min prior to the learning trial; iDREADD in ILA CRH cells
Protocol: Injection coordinates were the following (in mm from Bregma): AP: 1.65, ML: ±0.1, DV: -2.6. Injections were done bilaterally with 100 nl injected per site. […]
Social novelty preference test. […] Using automatic tracking of the test mice (ANY-Maze, Stoelting), the inventors quantified the time the test mice spent in the immediate area surrounding each cup - and therefore, interacting with each stimulus mice - during learning and recall. Using the interaction time from the recall trial, the inventors calculated a discrimination index for social novelty preference as the following: D! = (time with novel - time with familiar) / total interaction time. […] The inventors also calculated the total time spent interacting with stimulus mice during each trial in order to verify that the sociability drive was not affected. […]

C[N+]1([O-])CCN(C2=Nc3cc(Cl)ccc3Nc3ccccc32)CC1 [CNO, clozapine N-oxide]
discrimination index for social novelty preference: not different from zero
exploration of novel and familiar mice during recall: explored the novel and familiar mice to the same extent
